One experiment deals with GalfNeoLect (Streptomyces sp. JHA19, UniProt A0A0K2SRV3, E464Q). The experiment can be described thus: Competitive inhibition assay of GalfNGP binding to immobilised GalfNeoLect. Also noted: species or system Streptomyces sp. strain JHA19. The settings on record: for IC50: biotinylated GalfNGP (2 μg/mL) as tracer, read-out: IC50 of inhibitors towards GalfNeoLect; for inhibition of GalfNGP binding to immobilised GalfNeoLect: result in words. Here is the method: In the competitive inhibition assay, we investigated the ability of selected pNP, azido, or thyoaryl monosaccharide substrates (Galf-N3, Galf-thioaryl, pNP-β-D-Galf, pNP-β-D-Galp, pNP-α-L-Araf, pNP-β-D-Ribf) (Figure 5) for their ability to inhibit the binding of GalfNGP to immobilised GalfNeoLect.
(§1) The interaction profiles of each compound were determined through an indirect method, based on the inhibition by the compound of the interaction between a specific coupled lectin–glycan (a neoglycoprotein labelled with biotin and used as a tracer). Briefly, a mix of biotinylated GalfNGP (fixed concentration) and the corresponding compounds (in a range of concentrations), prepared in PBS supplemented with 1 mM CaCl2 and 0.5 mM MgCl2, are deposed in each well (50 μL each) in triplicate and incubated for 2 h at room temperature. After washing with PBS buffer, the conjugate streptavidin-DTAF was added (50 μL) and incubated for 30 min more. The plate was washed again with PBS. Finally, 100 μL of PBS was added for the readout of the fluorescent plate, performed with a fluorescence reader (λex = 485 nm, λem = 530 nm, Fluostar OPTIMA, BMG LABTECH, France). The signal intensity was inversely correlated with the capacity of the compound to be recognised by the lectin and expressed as inhibition percentage with comparison with the corresponding biotinylated GalfNGP alone.
Aspergillus brasiliensis (ATCC 16404) culture was inoculated on Sabouraud agar plates and incubated at 37 °C for 4 days until the formation of a black mycelium mat, which contains spores. Fresh spores were harvested with a sterile plastic inoculation loop by rubbing the black mycelium mat and dispersed in physiological serum solution (0.8% NaCl, 10 mL). The spore solution was resuspended well by using a vortex to prevent aggregation and was calibrated using a Malassez counting chamber to 5.10^6 spores/mL. Spores’ solutions (5.10^6 spores/mL) were used directly in inhibition assays with GalfNeoLect, following the same protocol describe above (Section 4.8).

In experiment [1] the target is T1, wild-type Galf-ase (Streptomyces sp. JHA19, UniProt A0A0K2SRV3). The experiment can be described thus: Competitive inhibition assay of GalfNGP binding to wild-type Galf-ase. Also noted: species or system Streptomyces sp. strain JHA19. To be noted: biotinylated GalfNGP (2 μg/mL) as tracer; read-out: IC50 of inhibitors towards wild-type Galf-ase. Here is the method: Indeed, Table 6 summarises the 50% inhibitory concentrations (IC50) obtained from all compounds studied.
as §1
Target sequence in this assay (A0A0K2SRV3 45-786 limits assumed): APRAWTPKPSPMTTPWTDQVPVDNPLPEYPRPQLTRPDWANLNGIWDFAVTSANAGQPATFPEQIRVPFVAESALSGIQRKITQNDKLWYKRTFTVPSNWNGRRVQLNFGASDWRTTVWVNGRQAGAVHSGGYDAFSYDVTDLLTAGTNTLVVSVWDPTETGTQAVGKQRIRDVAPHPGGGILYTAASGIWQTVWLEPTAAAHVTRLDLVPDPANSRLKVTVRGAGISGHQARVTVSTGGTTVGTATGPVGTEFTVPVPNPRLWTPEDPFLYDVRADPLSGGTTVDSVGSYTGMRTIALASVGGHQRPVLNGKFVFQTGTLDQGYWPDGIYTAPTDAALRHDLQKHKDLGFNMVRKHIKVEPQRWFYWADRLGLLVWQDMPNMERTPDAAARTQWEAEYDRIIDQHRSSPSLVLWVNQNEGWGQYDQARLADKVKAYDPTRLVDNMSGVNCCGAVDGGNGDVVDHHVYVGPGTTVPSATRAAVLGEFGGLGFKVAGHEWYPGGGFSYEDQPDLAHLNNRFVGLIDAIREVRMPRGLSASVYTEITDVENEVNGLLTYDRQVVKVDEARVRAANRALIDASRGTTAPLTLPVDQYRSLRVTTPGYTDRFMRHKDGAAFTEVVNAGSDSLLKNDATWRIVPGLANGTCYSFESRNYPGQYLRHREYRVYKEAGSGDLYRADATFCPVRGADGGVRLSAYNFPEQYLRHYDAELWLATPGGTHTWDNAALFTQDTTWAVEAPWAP

Experiment [2] has as its system T2, Galf-ase (wild-type Galf-ase; E464).
T2 construct: pET-28a(+) construct, expressed in E. coli Rosetta (DE3), Ni-NTA purified
The experiment can be described thus: Absorbance at 405 nm of p-nitrophenol released by hydrolysis of pNP-β-D-Galf (0.01-5 mM), citrate/phosphate buffer pH 4.5, 37 °C, 20 min, stopped with Na2CO3. The experiment is classed as biochemical. The settings on record: n = 3; cited from earlier work. The protocol: In analysing the hydrolitic activity and the hydrolysis rate-limiting steps of the three Galf-ase mutant variants E464S, E464C, and E464Q, the Michaelis–Menten kinetic parameters were determined under the similar conditions used for wild-type enzyme. […] Altogether, the obtained values are in the same order of magnitude. […] The significant decrease in catalytic efficiency by a factor of 3000–1400 times for E464S and E464C mutants, respectively, and 56 times lower for E464Q mutant is observed. These kinetic observations are in accordance with the other data obtained in similar assays used for the identification of the catalytic residues in retaining and inverting several GHs. The Galf-ase mutant variant E464Q featured only a minor change in the KM value, 166 µM compared to 250 µM, of the wild-type Galf-ase and, given the advantage that, contrary to other mutant variants, it was purified in sufficient quantities (0.3 mg/L), it was selected as a promising candidate to be tested as a novel Galf-binding lectin (GalfNeoLect). […]
Kinetic parameters were determined with pNP-β-D-Galf as a substrate in different concentration ranges (0.01–5 mM). […] All the reactions were assayed in triplicate and absorbance values were corrected for the spontaneous hydrolysis of the substrate. The kinetic parameters (KM, Vm, kcat) were calculated using GraphPad Prism 5 software (GraphPad Software, San Diego, CA, USA). […]

A further experiment deals with T3, E464Q (GalfNeoLect).
T3 construct: pET-28a(+) construct, expressed in E. coli Rosetta (DE3), Ni-NTA purified
Described as above. It counts as biochemical. The settings on record: n = 3. Here is the method: (§2) In analysing the hydrolitic activity and the hydrolysis rate-limiting steps of the three Galf-ase mutant variants E464S, E464C, and E464Q, the Michaelis–Menten kinetic parameters were determined under the similar conditions used for wild-type enzyme. […] Altogether, the obtained values are in the same order of magnitude. […] The significant decrease in catalytic efficiency by a factor of 3000–1400 times for E464S and E464C mutants, respectively, and 56 times lower for E464Q mutant is observed. These kinetic observations are in accordance with the other data obtained in similar assays used for the identification of the catalytic residues in retaining and inverting several GHs. The Galf-ase mutant variant E464Q featured only a minor change in the KM value, 166 µM compared to 250 µM, of the wild-type Galf-ase and, given the advantage that, contrary to other mutant variants, it was purified in sufficient quantities (0.3 mg/L), it was selected as a promising candidate to be tested as a novel Galf-binding lectin (GalfNeoLect). Further in the article, the E464Q mutant variant is addressed as GalfNeoLect.
(§3) Kinetic parameters were determined with pNP-β-D-Galf as a substrate in different concentration ranges (0.01–5 mM). The reaction (200 μL), containing buffer (20 μL; 0.1 M citric acid/0.2 M Na2HPO4 pH 4.5) and water, if required, was started by addition of the enzyme (2 μL; 0.13 mg/mL) and, after 20 min of incubation at 37 °C (water bath), the reaction was terminated (100 μL; 1 M Na2CO3) and absorbance (405 nm) of released pNP was measured. All the reactions were assayed in triplicate and absorbance values were corrected for the spontaneous hydrolysis of the substrate. The kinetic parameters (KM, Vm, kcat) were calculated using GraphPad Prism 5 software (GraphPad Software, San Diego, CA, USA).
(§4) Figure S4. Michaelis–-Menten plot of pNP-β-D-Galf hydrolysis reaction catalysed by Galf-ase E464S, E464C, and
(§5) E464Q mutant variants. Mean values and SD error bars were calculated from three independent experiments
(§6) (*except E464C) and from a single protein preparation. […]

A further experiment concerns T4, E464S.
T4 construct: pET-28a(+) construct, expressed in E. coli Rosetta (DE3), Ni-NTA purified
The description is as above. It counts as biochemical. To be noted: n = 3. Here is the method:
as §2, §3, §4, §5, §6

Another experiment concerns T5, E464C.
T5 construct: pET-28a(+) construct, expressed in E. coli Rosetta (DE3), Ni-NTA purified
Described as above. The settings on record: n = 3. The experiment is classed as biochemical. The protocol: as §2, §3, §4, §5, §6

The target of experiment [3] is T1, wild-type Galf-ase. Put plainly: Direct binding assay (ELLA) of biotinylated neoglycoproteins to immobilised wild-type Galf-ase. Also noted: species or system Streptomyces sp. strain JHA19. The settings on record: read-out: BC50 (concentration to obtain 50% GalfNGP binding). The source says:
To study and evaluate the binding interactions of Galf-ase E464Q mutant variant, as novel Galf-binding lectin (GalfNeoLect), we synthetised novel neoglycoproteins (NGPs) to serve as the Galf-bearing scaffold. Bovine serum albumin (BSA), a well-known, naturally unglycosylated protein that has up to 60 primary amino functional groups available for click-conjugation chemistry, has been functionalised with Galf motifs. Galf-N3, involved in the corresponding click reaction with propargyl functionalised BSA, was obtained from the corresponding per-O-acetyl galactofuranose using TMSN3 as a source of azide and TMSOTf as the Lewis acid (see ESI for chemical synthesis). After acetyl cleavage, the resulting/expected Galf-conjugated BSA neoglycoprotein (GalfNGP) synthesis has been first characterised for its functionality by direct binding assay with human Intelectin-1 (hIntL-1), wild-type Galf-ase, and GalfNeoLect. As hIntL-1 has been reported to bind furanose residues (five-membered-ring saccharide isomers), including a β-Galf–containing disaccharide, it served as a positive control for the evaluation of newly synthetised GalfNGP. […]
The assays were performed according to GlycoDiag’s protocol, already described in the literature. […] Finally, 100 μL of PBS was added for reading the plate using a fluorescence reader (λex = 485 nm, λem = 530 nm, Fluostar OPTIMA, BMG LABTECH, France). […]

Like-named read-outs stand apart in the source and are kept apart here.

Chain of GalfNeoLect (A0A0K2SRV3 45-786 E464Q limits assumed): as the sequence (A0A0K2SRV3 45-786 limits assumed) above, with E420Q counted along it

In the case of `[N-]=[N+]=N[C@@H]1O[C@@H]([C@H](O)CO)[C@H](O)[C@H]1O` [Galf-N3, β-D-galactofuranosyl azide], the half-maximal inhibitory concentration (IC50) was determined as 1390 µM at GalfNeoLect and 590 µM at wild-type Galf-ase [1]. In the case of `Cc1ccc(S[C@@H]2O[C@@H]([C@H](O)CO)[C@H](O)[C@H]2O)cc1` [Galf-thioaryl], the IC50 at GalfNeoLect (listed as Galf-Thioaryl) stood at 150 µM; at GalfNeoLect, 180 µM; at wild-type Galf-ase [1], 180 µM.

With `O=[N+]([O-])c1ccc(O[C@@H]2O[C@@H](CO)[C@H](O)[C@H]2O)cc1` [pNP-α-L-Araf], on GalfNeoLect, the “inhibition of GalfNGP binding to immobilised GalfNeoLect” value (from here on “inhibition of GalfNGP binding”) is recorded as “no inhibition”. `O=[N+]([O-])c1ccc(O[C@@H]2O[C@@H]([C@H](O)CO)[C@H](O)[C@H]2O)cc1` [pNP-β-D-Galf, p-nitrophenyl β-D-galactofuranoside]: the Km in experiment [2] was 250 µM; with E464Q (GalfNeoLect), 166 µM; with E464S, 36 µM; in the experiment with E464C, 170 µM. As to `O=[N+]([O-])c1ccc(O[C@@H]2O[C@@H]([C@H](O)CO)[C@H](O)[C@H]2O)cc1` [pNP-β-D-Galf], the IC50 stood at 1140 µM at GalfNeoLect and 560 µM on wild-type Galf-ase [1]. Turning to `O=[N+]([O-])c1ccc(O[C@@H]2O[C@H](CO)[C@H](O)[C@H](O)[C@H]2O)cc1` [pNP-β-D-Galp], the “inhibition of GalfNGP binding” value at GalfNeoLect is “no inhibition”. In the case of `O=[N+]([O-])c1ccc(OC2OC(CO)C(O)C2O)cc1` [pNP-β-D-Ribf], the “inhibition of GalfNGP binding” value on GalfNeoLect is “no inhibition”. In the case of “GalfNGP: Galf-conjugated bovine serum albumin neoglycoprotein carrying multivalent Galf units”, the EC50 with wild-type Galf-ase [3] worked out at 0.024 µM.
